Data published in patent publication US10647680B2, “Urea compound, preparation method therefor and medical use thereof” (Ancureall Pharmaceutical (Shanghai) Co., Ltd., priority 2016, dated 2020).
Where two headings read alike, the source gives them in different places.

Tests used:
Format in all cases: in vitro ADME
P-gp = assay: Bidirectional transmembrane transport and P-gp efflux in Caco-2 monolayer cell model; conditions: human, Caco-2, pH 7.4; Concentration 10, Inhibitor − (without P-gp inhibitor GF120918); read-out: Efflux Ratio Papp (B→A)/Papp (A→B)
Method: (§1) The Caco-2 cell transport experiment was performed using compound 77 of the present invention as a representative example.
(§2) Main procedure: Caco-2 cells (ATCC, HTB-37) were cultured in high-glucose DMEM culture medium (Hyclone) containing 10% fetal calf serum (GIBCO) and penicillin-streptomycin (100 units/mL each) (Sigma). Cells were cultured at 37° C. in an incubator containing 5% CO2. In the transport experiment, Caco-2 cells were inoculated on a filter of a 12-well Transwell plate at a density of 2×10^5 cells/well (Coming Costar, catalog #3401, 1.12 cm^2, 0.4 um of pore size). After inoculation, the Caco-2 cells would form intact cell monolayers after 21 days, including P-gp efflux transporter expression and transepithelial cell resistance (TEER) formation. During the period, the culture medium was replaced once every other day. The volume of culture medium at the transwell membrane Apical Side (A) and Basolateral Side (B) were 0.5 mL and 1.5 mL, respectively. Before the transport experiment (day 21), the preheated HBSS buffer (137 mM NaCl, 4.17 mM NaHCO3, 0.34 mM Na2HPO4, 5.37 mM KCl, 0.44 mM KH2PO4, 1.26 mM CaCl2, 0.49 mM MgCl2, 0.41 mM MgSO4, 5.55 Mm D-Glucose, 10 mM HEPES, pH 7.4) was used firstly to wash Caco-2 cell monolayers for three times, and placed to at 37° C. for incubation for 30 minutes, then TEER values were determined using a cell resistometer (Millicell-ERS2) to confirm the integrity and compactness of the cell monolayers. When the HBSS buffer solution on the transmembrane A-side or B-side was replaced with the test compound, the transport experiment was started.
(§3) Finally, after incubation at 37° C. for 2 hours, the transport experiment was terminated and 50 uL of sample solution was taken from both sides of the Transwell filter membrane separately and added to 100 μL of acetonitrile comprising internal standard compound and mixed well, then centrifuged at 13000 rpm, 4° C. for 10 min, and finally 10 μL (or a specific volume) of supernatant was used for LC-MS/MS sample analysis.
(§4) For each compound, transport experiments in the A-B and B-A directions had three replicates, i.e. n=3.
(§5) LC-MS/MS Sample Analysis: The high performance liquid chromatography (HPLC) system used in this research consisted of two pumps (Shimadzu LC-20AD) and an autosampler (Shimadzu SIL-20AC). The HPLC system was connected in series with an API 4000 triple quadrupole mass spectrometer (Applied Biosystems). The API 4000 triple quadrupole mass spectrometer was equipped with an electrospray ionization (ESI) source. Ultrapurified nitrogen was used as curtain gas, GAS1, GAS2, and collision gas, at flow rates of 20 L/h, 55 L/h, 65 L/h, and 6 L/hr, respectively. The atomization temperature of the ion source was set to 500° C. Data was collected using the software Analyst 1.5.
(§6) Data analysis: The apparent permeability coefficient (Papp) can be calculated by the rate at which a compound permeates the monolayer of Caco-2 cells. Its value is related to the absorption of the compound in vivo. After concentrations at A side and B side were determined by LC-MS/MS, the Papp value in the A-B or B-A direction was calculated according to the following formula: Papp(A→B) or Papp(B→A)=(dQ/dt)/(A*C0)=(C2h*V)/(t*π2*C0)
(§7) In the above formula, dQ/dt is the permeation rate, i.e. the amount of compound that permeated in the dt time, C0 is the initial concentration of drug on the administration side, and A is the surface area of the cell monolayer, i.e. the membrane area.
(§8) After obtaining the Papp (A→B) and Papp (B→A) values of the compound, the Efflux Ratio (ER) of the compound could be calculated by the following formula: Efflux Ratio(ER)=Papp(B−A)/Papp(A−B).
(§9) When the ratio of efflux was >2, the compound could be considered as the substrate of the efflux transporter.

[1] = as above; conditions: human
Method: as §1, §2, §3, §4, §5, §6, §7, §8, §9

[2] = Metabolic stability in rat liver microsomes; conditions: rat liver microsome
Method: The experiment on the compound stability in rat liver microsomes was performed using compound 77 of the present invention as a representative example.
Procedure: The mixed reaction solution containing reducing coenzyme II (1 mg/ml, Roche 10621706001), rat liver microsomes (0.5 mg/ml, BD Gentest), phosphate buffer (0.1M) and ionized water was prepared according to a certain ratio, and then the reaction solution was placed in a 37° C. water bath and preheated for 2 minutes. A certain amount of compound 77 or reference substance was added to the prepared mixed reaction solution to start the reaction. In the final reaction system, the concentration of compound 77 or the positive control midazolam (National Institutes for Food and Drug Control) was 2 uM, and water was used instead of reducing coenzyme II as a negative control. […] The ratio of mean peak area of compound 77 to the mean peak area of internal standard at each time point was calculated, and the percentage of this ratio to that at time point 0 was calculated, and then change in this percentage was used to indicate the metabolic stability of the compound 77. […]

Compound: COCCOc1ccc2c(c1)ncn2-c1ccc(NC(=O)Nc2cc(C(C)(C)C)n[nH]2)cc1 [Compound 77, 1-(5-tert-butyl-2H-pyrazol-3-yl)-3-{4-[5-(2-methoxyl-ethoxyl)-benzimidazol-1-yl]-phenyl}-urea]
- efflux ratio at 2 h (P-gp): 5.8
- Papp A→B at 2 h ([1]; Caco-2, pH 7.4, Caco-2 monolayer cell model, transmembrane permeability, read-out: Papp(A→B) value (conclusions under the table)): 1 to 10 ×10⁻⁶ cm/s
- Papp B→A at 2 h ([1]; Caco-2, pH 7.4, Concentration 10, Inhibitor − (without P-gp inhibitor GF120918)): 13.1 ×10⁻⁶ cm/s
- Papp A→B at 2 h ([1]; Caco-2, pH 7.4, Concentration 10, Inhibitor − (without P-gp inhibitor GF120918), read-out: Papp (A→B)): 2.24 ×10⁻⁶ cm/s
- elimination rate constant ([2]; 2 uM): 0.0031
- half-life at 2 uM ([2]; rat liver microsomes): 3.73 h
